The record followed here is ChEMBL document CHEMBL1158605, “Synthesis of novel beta-lactam fused spiroisoxazolidine chromanones and tetralones as potent antimicrobial agent for human and plant pathogens” (2010).

Experiment [1] relates to Proteus mirabilis. Nature of the experiment: Antibacterial activity against Proteus mirabilis. Format: functional.
In experiment [2] the test system is Macrophomina phaseolina. As to the kind of experiment: Antifungal activity against Macrophomina phaseolina. Format: functional.
Experiment [3] relates to Fusarium oxysporum. Nature of the experiment: Antifungal activity against Fusarium oxysporum. Format: functional.
For experiment [4], the system named is Salmonella enterica. Nature of the experiment: Antibacterial activity against Salmonella typhi. Format: functional, Salmonella enterica subsp. enterica serovar Typhi.
For experiment [5], the system named is Proteus vulgaris. As to the kind of experiment: Antibacterial activity against Proteus vulgaris. The experiment is classed as functional.
Experiment [6] concerns Staphylococcus aureus. Nature of the experiment: Antibacterial activity against Staphylococcus aureus. Format: functional.

In brackets after ≈: the same amount, converted by molar mass.

As usually defined, the MIC is the lowest concentration found to suppress growth. On to `COc1ccc(N2C(=O)[C@H]3[C@@H]2[C@H]2[C@H](c4ccccc4)[C@]4(CCc5ccccc5C4=O)ON2[C@@H]3C[Se]c2ccccc2)cc1`, for which the MIC in experiment [1] worked out at 55 µg/mL (≈ 86.5 µM); in experiment [2], 75 µg/mL (≈ 118 µM); in experiment [3], 125 µg/mL (≈ 197 µM); in experiment [4], 45 µg/mL (≈ 70.8 µM); in experiment [5], 40 µg/mL (≈ 62.9 µM); in experiment [6], 25 µg/mL (≈ 39.3 µM).
On to `COc1ccc([C@H]2[C@@H]3[C@H]4[C@H](C(=O)N4c4ccc(OC)cc4)[C@@H](C[Se]c4ccccc4)N3O[C@@]23CCc2ccccc2C3=O)cc1`, for which the MIC in experiment [1] is 50 µg/mL (≈ 75.1 µM); in experiment [2], 50 µg/mL (≈ 75.1 µM); in experiment [3], 125 µg/mL (≈ 188 µM); in experiment [4], 40 µg/mL (≈ 60.1 µM); in experiment [5], 35 µg/mL (≈ 52.6 µM); in experiment [6] it was 45 µg/mL (≈ 67.6 µM).
On to `COc1ccc(N2C(=O)[C@H]3[C@@H]2[C@H]2[C@H](c4ccc(Br)cc4)[C@]4(CCc5ccccc5C4=O)ON2[C@@H]3C[Se]c2ccccc2)cc1`, for which the minimum inhibitory concentration (MIC) amounted to 50 µg/mL (≈ 70 µM) in experiment [1]; 75 µg/mL (≈ 105 µM) in experiment [2]; 150 µg/mL (≈ 210 µM) in experiment [3]; 35 µg/mL (≈ 49 µM) in experiment [4]; 35 µg/mL (≈ 49 µM) in experiment [5]; 45 µg/mL (≈ 63 µM) in experiment [6].
As for `COc1ccc(N2C(=O)[C@H]3[C@@H]2[C@H]2[C@H](c4ccc(Cl)cc4)[C@]4(CCc5ccccc5C4=O)ON2[C@@H]3C[Se]c2ccccc2)cc1`, the MIC in experiment [1] was 40 µg/mL (≈ 59.7 µM); in experiment [2], 25 µg/mL (≈ 37.3 µM); in experiment [3] it was 50 µg/mL (≈ 74.6 µM); in experiment [4], 30 µg/mL (≈ 44.8 µM); in experiment [5], 45 µg/mL (≈ 67.2 µM); in experiment [6] it was 35 µg/mL (≈ 52.2 µM).
As for `COc1ccc(N2C(=O)[C@H]3[C@@H]2[C@H]2[C@H](c4ccccc4)[C@]4(COc5ccccc5C4=O)ON2[C@@H]3C[Se]c2ccccc2)cc1`, the MIC in experiment [1] came to 55 µg/mL (≈ 86.3 µM); in experiment [2], 50 µg/mL (≈ 78.4 µM); in experiment [3], 125 µg/mL (≈ 196 µM); in experiment [4] it was 20 µg/mL (≈ 31.4 µM); in experiment [5], 30 µg/mL (≈ 47.1 µM); in experiment [6] it was 45 µg/mL (≈ 70.6 µM).
Turning to `COc1ccc(N2C(=O)[C@H]3[C@@H]2[C@H]2[C@H](c4ccc(Br)cc4)[C@]4(COc5ccccc5C4=O)ON2[C@@H]3C[Se]c2ccccc2)cc1`, the minimal inhibitory concentration (MIC) in experiment [1] was determined as 30 µg/mL (≈ 41.9 µM); in experiment [2] it was 75 µg/mL (≈ 105 µM); in experiment [3], 150 µg/mL (≈ 209 µM); in experiment [4], 45 µg/mL (≈ 62.8 µM); in experiment [5], 25 µg/mL (≈ 34.9 µM); in experiment [6] it was 30 µg/mL (≈ 41.9 µM).
Take `COc1ccc(N2C(=O)[C@H]3[C@@H]2[C@H]2[C@H](c4ccc(C)cc4)[C@]4(COc5ccccc5C4=O)ON2[C@@H]3C[Se]c2ccccc2)cc1`: the MIC in experiment [1] came out at 65 µg/mL (≈ 99.8 µM); in experiment [2] it was 75 µg/mL (≈ 115 µM); in experiment [3], 150 µg/mL (≈ 230 µM); in experiment [4], 35 µg/mL (≈ 53.7 µM); in experiment [5], 40 µg/mL (≈ 61.4 µM); in experiment [6], 45 µg/mL (≈ 69.1 µM).
With `COc1ccc(N2C(=O)[C@H]3[C@@H]2[C@H]2[C@H](c4ccc(C)cc4)[C@]4(CCc5ccccc5C4=O)ON2[C@@H]3C[Se]c2ccccc2)cc1`, the MIC in experiment [1] amounted to 50 µg/mL (≈ 77 µM); in experiment [2], 25 µg/mL (≈ 38.5 µM); in experiment [3], 75 µg/mL (≈ 115 µM); in experiment [4] it was 35 µg/mL (≈ 53.9 µM); in experiment [5], 45 µg/mL (≈ 69.3 µM); in experiment [6], 40 µg/mL (≈ 61.6 µM).
Consider `COc1ccc([C@H]2[C@@H]3[C@H]4[C@H](C(=O)N4c4ccc(OC)cc4)[C@@H](C[Se]c4ccccc4)N3O[C@@]23COc2ccccc2C3=O)cc1`, for which the MIC in experiment [1] was 25 µg/mL (≈ 37.4 µM); in experiment [2], 75 µg/mL (≈ 112 µM); in experiment [3], 125 µg/mL (≈ 187 µM); in experiment [4] it was 45 µg/mL (≈ 67.4 µM); in experiment [5] it was 15 µg/mL (≈ 22.5 µM); in experiment [6] it was 40 µg/mL (≈ 59.9 µM).
For `COc1ccc(N2C(=O)[C@H]3[C@@H]2[C@H]2[C@H](c4ccc(Cl)cc4)[C@]4(COc5ccccc5C4=O)ON2[C@@H]3C[Se]c2ccccc2)cc1`, the MIC stood at 20 µg/mL (≈ 29.8 µM) in experiment [1]; 50 µg/mL (≈ 74.4 µM) in experiment [2]; 75 µg/mL (≈ 112 µM) in experiment [3]; 25 µg/mL (≈ 37.2 µM) in experiment [4]; 10 µg/mL (≈ 14.9 µM) in experiment [5]; 20 µg/mL (≈ 29.8 µM) in experiment [6].
Regarding `CN(C)[C@@H]1C(O)=C(C(N)=O)C(=O)[C@@]2(O)C(O)=C3C(=O)c4c(O)cccc4[C@@](C)(O)[C@H]3C[C@@H]12` [TETRACYCLINE], the MIC in experiment [1] worked out at 20 µg/mL (≈ 45 µM); in experiment [4], 15 µg/mL (≈ 33.8 µM); in experiment [5], 15 µg/mL (≈ 33.8 µM); in experiment [6], 10 µg/mL (≈ 22.5 µM).
Take `COC(=O)Nc1nc2ccccc2[nH]1` [CARBENDAZIM]: the values for the MIC in experiment [2] and in experiment [3] were 15 µg/mL (≈ 78.5 µM) and 18 µg/mL (≈ 94.1 µM), respectively.
